Test results from patent US7045523B2 (Novartis AG, priority 2001, dated 2006).

Assays:
K562 cells = test: Apoptosis assay, flow cytometry with APO2.7 mAb, in K562 cells with or without 10 days of telomestatin; type: cell-based; conditions: for induction of apoptosis / chemosensitivity in telomestatin-treated K562 cells compared with control cells: after exposure to the agent, the negative results are data not shown; for APO2.7 (%): 48 hours, K562 control cells or cells cultured with telomestatin 2 μM for 10 days
Procedure: Apoptosis assay. The incidence of apoptosis was determined by flow cytometric analysis with the FITC-conjugated APO2.7 monoclonal antibody (clone 2.7), which was raised against the 38 kDa mitochondrial membrane protein (7A6 antigen) and is expressed by cells undergoing apoptosis (Nakajima et al., 2001).
To assess the effects of telomerase inhibition in modulating responses to these reagents, experiments focused on early passaged telomestatin-treated K562 cells (PD10). In this series of experiments, K562 cells are cultured with telomestatin for 10 days, subsequently the telomestatin-treated K562 cells are incubated with the agents for 48 hours, and the incidence of apoptosis is determined by flow cytometric analysis with APO2.7 mAb (Table A). Apo2.7 is the apoptosis index. Higher score means that apoptosis is induced more powerfully.

OM9;22 or OM9;22R cells = test: Cell proliferation (growth kinetics) of OM9;22 / OM9;22R cells; type: cell-based, human; conditions: OM9;22 or Imatinib-resistant OM9;22R cells
Procedure: Cells and cell culture: The Ph-positive acute lymphoblastic cell line OM9;22 has been described previously (Ohyashiki et al., 1993). K562 cells were obtained from the American Type Culture Collection (Rockville, Md.). These cell lines were cultured in McCoy's 5A modified medium (Life Technology, Inc.) supplemented with 10% fetal calf serum (Hyclone Laboratories, Logan, Utah).
Effects of telomestatin on cell proliferation. We characterize the growth properties of telomestatin-treated cells. […] In a further study, we can characterize the ability of telomestatin to inhibit BCR-ABL transformation.

[1] = test system: human normal hematopoietic progenitor cells; test: Clonogenic assay on normal hematopoietic progenitor cells; type: cell-based; conditions: at concentrations 10 times higher than those that completely inhibit colonies from OM9;22R cells

Row | sensitivity of human normal hematopoietic progenitor cells [1] | Structure (SMILES) | induction of apoptosis / chemosensitivity in telomestatin-treated K562 cells compared with control cells (K562 cells) | APO2.7 (%) (K562 cells; 10 nM agent) | APO2.7 (%) (K562 cells; 50 nM agent) | APO2.7 (%) (K562 cells; 100 nM agent) | APO2.7 (%) (K562 cells; 500 nM agent) | APO2.7 (%) (K562 cells; 1000 nM agent) | time until proliferation is slowed (OM9;22 or OM9;22R cells) [weeks]
1 | – | Nc1ccn([C@@H]2O[C@H](CO)[C@@H](O)[C@@H]2O)c(=O)n1 [cytosine arabimoside, cytosine arabinoside] | significant chemosensitivity is not observed | – | – | – | – | – | –
2 | – | COc1cccc2c1C(=O)c1c(O)c3c(c(O)c1C2=O)C[C@@](O)(C(C)=O)C[C@@H]3O[C@H]1C[C@H](N)[C@H](O)[C@H](C)O1 [DNR (control), Daunorubicin] | enhanced induction of apoptosis | 11 | 23 | 36 | 53 | – | –
3 | – | COc1cc([C@@H]2c3cc4c(cc3[C@@H](O[C@@H]3O[C@@H]5CO[C@@H](C)O[C@H]5[C@H](O)[C@H]3O)[C@H]3COC(=O)[C@H]23)OCO4)cc(OC)c1O [etoposide (VP-16), etoposide] | significant chemosensitivity is not observed | – | – | – | – | – | –
4 | – | CC[C@]1(O)C[C@H]2CN(CCc3c([nH]c4ccccc34)[C@@](C(=O)OC)(c3cc4c(cc3OC)N(C=O)[C@H]3[C@@](O)(C(=O)OC)[C@H](OC(C)=O)[C@]5(CC)C=CCN6CC[C@]43[C@@H]65)C2)C1 [VCR (control), vincristine] | enhanced induction of apoptosis | 12 | 18 | 24 | 29 | 34 | –
5 | – | Sc1ncnc2nc[nH]c12 [6-mercaptopurine (6-MP), 6-mercaptopurine] | significant chemosensitivity is not observed | – | – | – | – | – | –
6 | – | CN(Cc1cnc2nc(N)nc(N)c2n1)c1ccc(C(=O)N[C@@H](CCC(=O)O)C(=O)O)cc1 [methotrexate (MTX), methotrexate] | significant chemosensitivity is not observed | – | – | – | – | – | –
7 | – | O=C1c2c(O)ccc(O)c2C(=O)c2c(NCCNCCO)ccc(NCCNCCO)c21 [MIT (control), mitoxantrone] | enhanced induction of apoptosis | 10 | 12 | 17 | 29 | 38 | –
8 | significantly less sensitive | Cc1oc2nc1-c1nc(co1)-c1nc(co1)-c1nc(co1)-c1nc(co1)-c1nc(co1)C1=NC(CS1)c1nc-2c(C)o1 (centres unmarked) [telomestatin] | – | – | – | – | – | – | ≤ 2
